Consider 2 molecules from patent US7973147B2, “K04-0144 substance and a process for production thereof” (The Kitasato Institute, priority 2006, dated 2011).

Like-named read-outs stand apart in the source and are kept apart here.

This test concerns MRSA (Clinical isolate, the Kitasato Hospital, Japan). Nature of the test: Enhancing action of K04-0144D substance on antibiotic activities, broth microdilution method. The format is cell-based, methicillin-resistant Staphylococcus aureus. Particulars: for Ratio (−/+K04-0144D): MIC alone / MIC with K04-0144D substance 16 μg/ml; for MIC: Staphylococcus aureus, MRSA. For orientation: Broth dilution looks for growth in wells or tubes with falling amounts of substance.

[1] abbreviates: antibiotic alone, without K04-0144D substance, read-out: Minimum Inhibitory Concentration (−).
Setting [2] is: combined use with K04-0144D substance 16 μg/ml, read-out: Minimum Inhibitory Concentration (+).

In the case of `[H]/N=C(/N)N[C@H]1[C@H](O)[C@@H](O)[C@H](O[C@@H]2O[C@@H](C)[C@](O)(C=O)[C@H]2O[C@@H]2O[C@@H](CO)[C@H](O)[C@@H](O)[C@@H]2NC)[C@@H](N/C(N)=N\[H])[C@@H]1O` [Streptomycin, streptomycin], the “Ratio (−/+K04-0144D)” value came out at 2. Moreover, the “enhancing action of K04-0144D substance on the antibiotic's activity” value (K04-0144D substance 16 μg/ml) is on record as “no enhancing action”. In addition, under setting [1], the MIC was determined as 2 mg/L. The MIC under setting [2] was found to be 1 mg/L.
With `C[C@@H](O)[C@H]1C(=O)N2C(C(=O)O)=C(SCCN=CN)C[C@H]12` [Imipenem, imipenem], the “Ratio (−/+K04-0144D)” value is 1024. Further, the MIC under setting [1] stood at 32 mg/L. The MIC under setting [2] was 0.03 mg/L.
